“Also recorded” adds a separate entry of the source.
Columns and labels:
[1] = tested on: human PMNs incubated with live S. aureus; assay: NET formation by human PMNs incubated with live S. aureus; type: cell-based; settings: pretreatment 1 nM; live S. aureus (MOI 100)
Procedure: A human histone H3 release assay was used to quantify NET formation (n=2). NET-inhibitory activity of CRISPP was tested using in vitro models of two human infectious diseases: Staphylococcus aureus bacteremia and dengue fever.
Qualitative assessment of NET formation was performed as previously referenced in Yost et al., Blood, 2009, 113: 6419-6427 and McInturff et al., Blood, 2012, 120: 3118-3125. Briefly, primary PMNs isolated from preterm infants, healthy term infants, and healthy adults (2×10^6 cells/mL) were incubated with control buffer or stimulated with LPS (100 ng/mL), PMA (20 nM), or S. aureus bacteria (MOI 100) for 1 hour at 37° C. in 5% CO2/95% air on glass coverslips coated with poly-L-lysine. For selected experiments, primary PMNs were pre-incubated with autologous plasma, cord blood plasma, nNIF (1 nM), CRISPP (1 nM), or SCR (1 nM) for 1 hour prior to imaging. After pre-incubation and/or stimulation, PMNs were gently washed with PBS and incubated with a mixture of cell permeable (SYTO Green, MOLECULAR PROBES) and impermeable (SYTOX Orange, MOLECULAR PROBES) DNA fluorescent dyes. Confocal microscopy was accomplished using a FV300 1×81 Microscope and FLUOVIEW software (OLYMPUS). Both 20× and 60× objectives were used. […]
Supernatant total histone H3 content was determined as previously referenced in McInturff et al., Blood, 2012, 120: 3118-3125. […]

PMA-stimulated PMNs = assay: Nuclear decondensation (nuclear area) assay; type: cell-based, human; settings: CRISPP 1 nM, SCR 1 nM, Sivelestat 200 nM; PMA 20 nM, 2 hours; vs PMA alone
Procedure: Using techniques modified from Papayannopoulos et al., J Cell Biol, 2010, 191: 677-691, nuclear area assays were used for PMA-stimulated PMNs as a surrogate for NET formation. PMNs were stimulated with PMA (20 nM) for 2 hours and then visualized via live cell imaging with a cell permeable DNA dye. Images from 5 randomly selected high power fields were captured and the nuclear area of all PMNs on each visual field was quantitated using IMAGEJ software. Nuclear areas were compared for PMNs stimulated with PMA with PMNs pre-incubated with CRISPP (1 nM), SCR (1 nM), or the NE inhibitor Sivelestat (200 nM). […] Next, immunocytochemical experiments designed to see whether CRISPP is taken up by human PMNs were performed. The CRISPP-F and SCR-F peptides and FLAG-tag specific primary antibodies were used to assess cellular location. […] CRISPP can inhibit nuclear chromatin decondensation, which is consistent with the selective inhibition of NET formation by CRISPP and nNIF. This process may involve inhibition of NE activity.
PMNs were isolated and resuspended to 2×10^6 cells/mL in M-199 media. […] 5 randomly selected high power visual fields per sample were captured via confocal microscopy and analyzed for nuclear area using the cell-permeable, fluorescent DNA dye SYTO Green. The nuclear pixel areas of >100 individual cells per high power field were determined using IMAGE-J software (NIH).

Cancer-Associated SCM-Recognition, Immune Defense Suppression, and Serine Protease Protection Peptide [CRISPP, nNIF-related peptide (nNRP)]
NET formation induced by S. aureus [1]: completely blocked NET formation; also recorded: inhibited NET formation | Nuclear area of PMA-stimulated PMNs (PMA-stimulated PMNs): significant decrease in nuclear area
